Source: publication PMC5550016, “Aminophosphinates against Helicobacter pylori ureolysis—Biochemical and whole-cell inhibition characteristics” (PLoS ONE, 2017)
Read-outs that look alike come from different tables or passages of the source.

Legend:
[1] = target: T1, purified recombinant urease from H. pylori (Helicobacter pylori, UniProt B5Z674); experiment: Inhibition of purified recombinant H. pylori urease (phenol-hypochlorite, Lineweaver-Burk); format: biochemical; conditions: 50 mM phosphate buffer pH 7.5, 37°C, 0.1–2.5 mM urea, competitive reversible inhibition
T1 construct: plasmid pGEM::ureOP, which encodes the entire urease gene cluster, was used to produce recombinant H. pylori urease; made in house; host or cells: E. coli Rosetta2 (DE3) + pGEM::ureOP
T1 sequence (B5Z674 whole entry, looked up): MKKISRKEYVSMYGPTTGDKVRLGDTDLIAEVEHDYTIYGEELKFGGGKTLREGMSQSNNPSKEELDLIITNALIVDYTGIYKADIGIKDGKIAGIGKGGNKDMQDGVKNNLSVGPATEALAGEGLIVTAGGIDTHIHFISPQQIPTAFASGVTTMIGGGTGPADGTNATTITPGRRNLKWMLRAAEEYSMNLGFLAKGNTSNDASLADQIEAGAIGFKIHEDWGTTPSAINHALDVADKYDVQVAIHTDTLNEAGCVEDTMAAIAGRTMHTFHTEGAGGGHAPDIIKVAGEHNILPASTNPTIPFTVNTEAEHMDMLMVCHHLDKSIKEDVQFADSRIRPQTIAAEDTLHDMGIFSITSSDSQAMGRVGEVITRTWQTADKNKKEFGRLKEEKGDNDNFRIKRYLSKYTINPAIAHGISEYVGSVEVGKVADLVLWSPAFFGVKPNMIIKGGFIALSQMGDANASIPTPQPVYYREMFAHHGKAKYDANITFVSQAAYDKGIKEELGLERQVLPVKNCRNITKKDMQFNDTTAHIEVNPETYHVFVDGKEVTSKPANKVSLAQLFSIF
Procedure: The kinetic parameters of urease were determined by measuring the initial rates of the reactions in 50 mM phosphate buffer (pH 7.5) at 37°C. Ammonia was routinely quantified by the phenol hypochlorite method as reported previously.
Inhibition studies were conducted by initiating the enzymatic reaction with the addition of the enzyme into assay mixtures (200 μL total volume) containing increasing concentrations of inhibitors and 0.1–2.5 mM urea. After 15 min of incubation at 37°C, the reaction was stopped by adding phenol-hypochlorite reagents and the absorbance of the formed indophenol blue complexes was measured at 650 nm. The Ki values were determined from Lineweaver-Burk plots after testing at least five inhibitor concentrations in a range that depended on their inhibitory strength. The concentration of inhibitor that caused the loss of 50% of the enzyme’s activity (IC50) was determined from the measurements that were performed at a urea concentration of 0.6 mM and calculated using the linear regression of the urease activity versus the logarithm of the inhibitor concentrations.
The values of Ki and IC50 for all analyzed compounds were calculated using the appropriate equations in GraphPad Prism 5. Errors were reported with two significant digits, and each measured parameter was given with the same number of decimal places as its error [32].

[2] = target: T2, urease in intact H. pylori J99 (Helicobacter pylori, UniProt P69997); experiment: Urease inhibition in whole cells of H. pylori J99; format: cell-based
T2 construct: In the intact H. pylori J99 cells, the urease susceptibility profile was similar to that of E. coli (pGEM::ureOP); endogenous in cells
T2 sequence (Q9ZMZ4 whole entry): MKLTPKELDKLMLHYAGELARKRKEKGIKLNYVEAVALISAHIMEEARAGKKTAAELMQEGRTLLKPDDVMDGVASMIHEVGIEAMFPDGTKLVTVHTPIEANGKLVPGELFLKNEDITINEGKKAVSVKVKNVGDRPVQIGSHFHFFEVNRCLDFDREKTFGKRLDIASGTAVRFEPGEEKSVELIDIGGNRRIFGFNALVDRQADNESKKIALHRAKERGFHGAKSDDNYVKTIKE
T2 sequence (P69997 whole entry): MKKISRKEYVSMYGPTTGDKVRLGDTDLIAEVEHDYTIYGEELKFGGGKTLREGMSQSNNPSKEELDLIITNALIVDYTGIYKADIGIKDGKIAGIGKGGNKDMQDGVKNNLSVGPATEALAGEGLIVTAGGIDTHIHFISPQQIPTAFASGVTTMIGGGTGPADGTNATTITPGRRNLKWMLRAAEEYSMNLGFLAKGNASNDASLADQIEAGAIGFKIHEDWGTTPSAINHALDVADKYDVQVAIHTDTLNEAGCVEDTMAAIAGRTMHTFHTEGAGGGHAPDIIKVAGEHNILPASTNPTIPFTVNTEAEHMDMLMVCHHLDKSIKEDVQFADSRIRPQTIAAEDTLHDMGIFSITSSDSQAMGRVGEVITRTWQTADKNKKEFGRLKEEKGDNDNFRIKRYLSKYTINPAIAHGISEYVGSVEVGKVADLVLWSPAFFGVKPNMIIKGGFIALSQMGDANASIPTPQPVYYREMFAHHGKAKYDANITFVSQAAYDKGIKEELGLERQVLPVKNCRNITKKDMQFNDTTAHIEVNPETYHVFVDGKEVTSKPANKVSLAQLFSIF

[3] = target: T3, urease in intact E. coli (pGEM::ureOP) cells (Helicobacter pylori, UniProt B5Z674); experiment: Urease inhibition in whole cells of E. coli + pGEM::ureOP; format: cell-based; conditions: IC50 exceeding 2 mM considered not active
T3 construct: plasmid pGEM::ureOP, which encodes the entire urease gene cluster, was used to produce recombinant H. pylori urease; expressed in transfected cells; host or cells: E. coli Rosetta2 (DE3) transformed with pGEM::ureOP
T3 sequence (B5Z674 whole entry, looked up): as the sequence (B5Z674 whole entry, looked up) above
Procedure: The expression strain E. coli + pGEM::ureOP was cultured in 150 mL of LB broth (Biocorp, Poland) with 100 μg/mL ampicillin (Polfa, Tarchomin, Poland) at 37°C and induced with IPTG (0.75 mM) and Ni^2+ (0.75 mM) during the exponential growth phase, which was determined by the OD600 measurements (OD600 = 0.6). Further expression was conducted for 24 h at 22°C. The bacterial culture (1 mL) was harvested via centrifugation (2 min, 20 376 x g, 37°C) and washed three times with PBS. The pellets from 1-mL samples of the expression cell culture were resuspended in 100 μL of PBS. The hydrolysis of urea that is catalyzed by whole bacterial cells was performed in 96-well plates (Rotilabo, U-profile). The reaction progress curves were obtained by the addition of bacterial cells (1×10^9 CFU/mL final concentration) into mixtures (300 μL final volume) that contained 5 mM urea and various inhibitor concentrations that depended on their inhibitory strength. Alternatively, the reaction was initiated via the addition of a concentrated solution of urea after a 120-min preincubation of bacterial cells with the inhibitor. Samples (50 μL) of the reaction mixture were removed after the appropriate reaction time. The enzymatic reactions in the samples were terminated via the introduction of 100 μL of phenol-sodium nitroprusside solution, immediately followed by the addition of 100 μL of NaOH-hypochlorite solution. The absorption of indophenol blue was measured at 650 nm using a TECAN-Sunrise absorbance reader equipped with a gradient filter and Magellan software. The IC50 values were determined from the linear regression of the urease activity versus the logarithm of the inhibitor concentration. The reaction was studied in the absence and in the presence of the inhibitor. The influence of dimethylformamide (DMF), which was used as a solvent for several compounds, was also determined.

[4] = system: immortalized murine endothelial cell line from peripheral lymph node HEC A10; experiment: Sulforhodamine B antiproliferative assay, HEC A10; format: cell-based; conditions: Mus musculus, compound 0.5 mM, 72 h, read-out: % Proliferation inhibition ± SD
Procedure: (§1) The BALB/3T3 cell line was cultured in Dulbecco MEM (Gibco, Scotland) supplemented with 10% (v/v) FBS (Sigma-Aldrich, Poznań, Poland) and 2 mM L-glutamine (Sigma-Aldrich, Poznań, Poland). The MCF-10A cell line was cultured in F-12 Nutrient mixture supplemented with 5% (v/v) horse serum (both Gibco, Scotland), 0.05 μg/mL cholera toxin, 10 μg/mL insulin, 0.5 μg/mL hydrocortisone, and 20 ng/mL EGFH (all Sigma-Aldrich, Poznań, Poland). The Eph4-Ev cell line was cultured in Dulbecco MEM supplemented with 2 mM L-glutamine, 10% (v/v) calf bovine serum (ATCC Rockville, Maryland, USA) and puromycin (Sigma-Aldrich, Poznań, Poland). The HEC A10 cell line was cultured in OPTI-MEM (IIET, Wroclaw, Poland) supplemented with 2 mM L-glutamine and 5% (v/v) FBS. All culture media were additionally supplemented with antibiotics: 100 U/mL penicillin and 100 μg/mL streptomycin (both Polfa-Tarchomin, Poland). During all experiments, cells were maintained in a humid atmosphere at 37°C and 5% CO2 and passaged twice a week using EDTA-Trypsin (pH 8; IIET, Wroclaw, Poland) solution as a detachment agent.
(§2) This assay was used as previously described with minor modifications. Briefly, 24 h before adding the tested compounds, cells were seeded in 96-well plates (Sarstedt, Germany) in appropriate culture medium with 10^5 […] (100 μL/well). Cells were treated with each compound in at least four concentrations in the range from 500–4 μM for 72 h. Next, cells were fixed with 50 μL/well of 50% (w/v) trichloroacetic acid (Avantor Performance Materials, Gliwice, Poland). After a 1-hour incubation, the plates were washed several times with tap water, and 50 μL of 0.4% (w/v) solution of sulforhodamine B (Sigma-Aldrich, Germany) in 1% (v/v) acetic acid (Avantor Performance Materials, Gliwice, Poland) was added to each well. After a 30-min incubation at room temperature, unbound dye was washed out with 1% (v/v) acetic acid, whereas bound dye was solubilized with 10 mM unbuffered TRIS (Avantor Performance Materials, Gliwice, Poland) solution. The entire procedure was performed using an EL-406 washing station (BioTek Instruments, USA). Next, absorbance at 540 nm was measured using a Synergy H4 Hybrid Reader (BioTek Instruments, USA). Compounds at each concentration were tested in triplicate in a single experiment, and each experiment was repeated three times independently. The results were calculated using the Prolab-3 system based on Cheburator 0.4 software and was presented as proliferation inhibition percentages at the highest concentration used.

[5] = system: mouse fibroblasts BALB/3T3; experiment: Sulforhodamine B antiproliferative assay, BALB/3T3; format: cell-based; conditions: compound 0.5 mM, 72 h, read-out: % Proliferation inhibition ± SD
Procedure: as §1, §2

[6] = system: human mammary gland MCF-10A; experiment: Sulforhodamine B antiproliferative assay, MCF-10A; format: cell-based; conditions: compound 0.5 mM, 72 h, read-out: % Proliferation inhibition ± SD
Procedure: as §1, §2

[7] = system: murine mammary gland epithelium Eph4-Ev; experiment: Sulforhodamine B antiproliferative assay, Eph4-Ev; format: cell-based; conditions: Mus musculus, compound 0.5 mM, 72 h, read-out: % Proliferation inhibition ± SD
Procedure: as §1, §2

[8] = cells grown with urea, 2 h of preincubation with inhibitors in PBS under microaerobic conditions, read-out: IC502h PBS
[9] = cells grown with urea, 2 h of preincubation with inhibitors in growth medium under microaerobic conditions, read-out: IC502h medium
[10] = cells grown with urea, without preincubation, read-out: IC500
[11] = cells grown without urea, 2 h of preincubation with inhibitors in PBS under microaerobic conditions, read-out: IC502h PBS
[12] = cells grown without urea, without preincubation, read-out: IC500
[13] = read-out: IC500, without preincubation of cells with inhibitory compounds, 30-min reactions, 5 mM urea
[14] = read-out: IC502h PBS, 2 h of preincubation with inhibitors in PBS
[15] = without preincubation of cells with inhibitory compounds, 30-min reactions, 5 mM urea
[16] = IC502h PBS, 2 h of preincubation with inhibitors in PBS
[17] = IC500, without preincubation of cells with inhibitory compounds, 30-min reactions, 5 mM urea

Structure (SMILES) | Ki ([1]; Ki) [µM] | IC50 [2, 8] [µM] | IC50 [2, 9] [µM] | IC50 [2, 10] [µM] | IC50 [2, 11] [µM] | IC50 [2, 12] [µM] | IC50 [3, 13] [µM] | IC50 [3, 14] [µM] | IC50 [3, 16] [µM] | further results
CCCCCCNCP(=O)(O)CO [Compound 5] | 74.3 ± 4.7 | – | – | – | – | – | – | – | – | –
NCP(=O)(O)CN1CCCCC1 [Compound 16] | – | > 2000 | > 2000 | > 2000 | > 2000 | > 2000 | > 2000 | > 2000 | – | –
CN(Cc1ccccc1)CP(=O)(O)CN [Compound 19] | 36.4 ± 4.9 | > 2000 | > 2000 | > 2000 | > 2000 | > 2000 | – | – | – | IC500 [3, 15]: complete lack of inhibitory effects
CC(C)CNCP(=O)(O)CN [Compound 10] | 440 ± 70 | 1130 ± 83 | 835 ± 34 | > 2000 | 980 ± 35 | 913 ± 63 | > 2000 | – | 1870 ± 113 | –
NCP(=O)(O)CNC1CCCCC1 [Compound 17] | – | > 2000 | > 2000 | > 2000 | > 2000 | > 2000 | > 2000 | > 2000 | – | –
CNCP(=O)(O)CNC [Compound 21, bis(N-methylaminomethyl)phosphinic acid] | 26.1 ± 1.8 | 549 ± 15 | 117 ± 7.4 | 443 ± 24 | 132 ± 21 | 581 ± 37 | – | – | 269 ± 39 | inhibition at 500 µM [4]: 0%; inhibition at 500 µM [5]: 0%; IC50 [3, 17]: 1260 ± 189 µM; inhibition at 500 µM [6]: 0%; inhibition at 500 µM [7]: 2.2 ± 1.5%
CN(C)CP(=O)(O)CN [Compound 8] | 29.9 ± 2 | – | – | – | – | – | – | – | – | –
CCCCCCCNCP(=O)(O)CN [Compound 14] | 878 ± 25 | 672 ± 52 | 474 ± 34 | 942 ± 79 | 675 ± 33 | 743 ± 74 | > 2000 | > 2000 | – | IC500 [3, 15]: complete lack of inhibitory effects
CCCCCNCP(=O)(O)CN [Compound 12] | 43.1 ± 3.6 | 853 ± 93 | 806 ± 72 | 813 ± 61 | 917 ± 105 | 872 ± 68 | – | – | 475 ± 73 | IC50 [3, 17]: 1670 ± 232 µM
CNCP(C)(=O)O [Compound 2] | 61.6 ± 3.5 | 468 ± 21 | 274 ± 87 | 597.4 ± 5.2 | 852 ± 40 | 480 ± 79 | – | – | 306 ± 48 | inhibition at 500 µM [4]: 0%; inhibition at 500 µM [5]: 1.4 ± 1.1%; IC50 [3, 17]: 573 ± 76 µM; inhibition at 500 µM [6]: 0%; inhibition at 500 µM [7]: 1.1 ± 1%
O=P(O)(CNCc1ccccc1)CNCc1ccccc1 [Compound 23] | 50.7 ± 4.8 | > 2000 | > 2000 | > 2000 | > 2000 | > 2000 | – | – | – | IC500 [3, 15]: complete lack of inhibitory effects
CCN(CC)CP(=O)(O)CN [Compound 20] | – | > 2000 | > 2000 | > 2000 | > 2000 | > 2000 | > 2000 | > 2000 | – | –
NCP(=O)(O)CNCc1ccccc1 [Compound 18] | 44.4 ± 2.5 | > 2000 | > 2000 | > 2000 | > 2000 | > 2000 | > 2000 | > 2000 | – | IC500 [3, 15]: complete lack of inhibitory effects
CCCCNCP(=O)(O)CN [Compound 11] | 27 ± 2.1 | 816 ± 39 | 470 ± 38 | 733 ± 9.2 | 933 ± 206 | 881 ± 35 | – | – | 284 ± 41 | IC50 [3, 17]: 779 ± 99 µM
CC(=O)NO [Compound 24, acetohydroxamic acid, reference compound] | – | 1360 ± 194 | 192 ± 26 | 1670 ± 70 | 156 ± 32 | > 2000 | – | – | – | IC50 ([2]; urea-grown cells, preincubation in PBS, read-out: IC502h PBS): 1350 µM; IC50 ([2]; urea-grown cells, without former preincubation, read-out: IC500): 1660 µM; Ki ([1]; listed as acetohydroxamic acid, read-out: Ki): 23 µM; Ki ([1]; read-out: Ki): 23.2 ± 1.5 µM; IC50 ([3]; 2 h of preincubation with inhibitors in PBS, read-out: IC502h PBS): 96 ± 17 µM; IC50 ([3]; without preincubation of cells with inhibitory compounds, 30-min reactions, 5 mM urea, read-out: IC500): 153 ± 31 µM
CN(C)CP(=O)(O)CN(C)C [Compound 22] | – | > 2000 | > 2000 | > 2000 | > 2000 | > 2000 | > 2000 | > 2000 | – | –
